How the values were obtained:
BACE1 [1] = molecular target: T1, BACE1 (Homo sapiens (Human), UniProt P56817); assay: In vitro enzymatic BACE1 FRET assay; type: biochemical; conditions: read-out: IC50 IP (μM) BACE1 Enzyme
Target sequence in this assay (P56817 46-501): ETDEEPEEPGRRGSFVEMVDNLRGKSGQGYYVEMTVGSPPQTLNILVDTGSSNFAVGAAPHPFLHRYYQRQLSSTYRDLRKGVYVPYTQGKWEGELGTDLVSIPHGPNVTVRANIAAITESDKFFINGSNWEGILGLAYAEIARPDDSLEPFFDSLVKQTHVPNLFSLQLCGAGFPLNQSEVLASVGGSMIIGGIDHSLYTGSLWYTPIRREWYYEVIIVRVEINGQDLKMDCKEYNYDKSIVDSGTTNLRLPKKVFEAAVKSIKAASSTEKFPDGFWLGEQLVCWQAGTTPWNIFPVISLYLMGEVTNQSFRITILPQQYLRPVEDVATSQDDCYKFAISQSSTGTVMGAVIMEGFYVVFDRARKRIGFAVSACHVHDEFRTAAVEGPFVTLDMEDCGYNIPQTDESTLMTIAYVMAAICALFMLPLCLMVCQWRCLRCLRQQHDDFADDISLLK
Description: (§1) In Vitro Enzymatic BACE1 and BACE2 FRET (Fluorescence Resonance Energy Transfer) Assays (Enzyme Assay Data in Table 1)

Cathepsin D (CatD) = Cathepsin D (CatD) (Homo sapiens (Human), UniProt P07339); assay: CatD assay; type: biochemical; conditions: read-out: IC50 IP (μM) CatD
BACE1 [2] = molecular target: T1, BACE1; assay: BACE1 cell assay; type: cell-based
Target sequence in this assay (P56817 46-501, species assumed): as the sequence (P56817 46-501) above

BACE2 = BACE2 (Homo sapiens (Human), UniProt Q9Y5Z0); assay: In vitro enzymatic BACE2 FRET assay; type: biochemical; conditions: read-out: IC50 IP (μM) BACE2 Enzyme
Sequence of BACE2 (Q9Y5Z0 63-518): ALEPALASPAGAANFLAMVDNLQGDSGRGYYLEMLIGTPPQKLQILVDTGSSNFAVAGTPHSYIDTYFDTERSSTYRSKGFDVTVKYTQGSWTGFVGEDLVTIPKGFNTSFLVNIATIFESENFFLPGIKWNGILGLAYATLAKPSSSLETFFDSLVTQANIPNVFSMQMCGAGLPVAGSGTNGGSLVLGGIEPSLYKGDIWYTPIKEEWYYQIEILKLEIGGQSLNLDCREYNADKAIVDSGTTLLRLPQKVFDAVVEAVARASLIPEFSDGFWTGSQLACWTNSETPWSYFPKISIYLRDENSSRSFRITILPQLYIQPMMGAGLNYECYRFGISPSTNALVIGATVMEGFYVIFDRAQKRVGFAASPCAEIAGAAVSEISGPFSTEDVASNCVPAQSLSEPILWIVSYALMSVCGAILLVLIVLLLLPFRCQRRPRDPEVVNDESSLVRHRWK
Description: as §1

[3] = read-out: IC50 IP (μM) BACE1 Cell

Sequence of Cathepsin D (CatD) (P07339 65-412, species assumed): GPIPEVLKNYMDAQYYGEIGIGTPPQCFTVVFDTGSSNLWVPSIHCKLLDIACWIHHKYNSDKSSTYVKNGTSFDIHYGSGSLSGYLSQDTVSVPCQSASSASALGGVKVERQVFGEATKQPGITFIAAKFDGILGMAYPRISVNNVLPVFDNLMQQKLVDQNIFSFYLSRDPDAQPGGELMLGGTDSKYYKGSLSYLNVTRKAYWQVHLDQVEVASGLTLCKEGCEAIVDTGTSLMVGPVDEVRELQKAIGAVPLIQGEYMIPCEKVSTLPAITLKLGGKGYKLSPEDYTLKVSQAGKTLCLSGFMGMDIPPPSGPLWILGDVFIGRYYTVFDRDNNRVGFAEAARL

Row | SMILES | IC50 (BACE1 [1]) [µM] | IC50 (Cathepsin D (CatD)) [µM] | IC50 (BACE1 [2]) [µM] | IC50 (BACE2) [µM] | IC50 (BACE1 [2]; [3]) [µM]
1 | Cc1cc(COc2cnc(/C(F)=C/c3ccc(F)c([C@@]4(C)N=C(N)S[C@@]5(C(=O)N(C)C)C[C@H]54)c3)cn2)on1 [Example 218, (1S,5S,6S)-3-amino-5-(2-fluoro-5-((Z)-2-fluoro-2-(5-((3-methylisoxazol-5-yl)methoxy)pyrazin-2-yl)vinyl)phenyl)-N,N,5-trimethyl-2-thia-4-azabicyclo[4.1.0]hept-3-ene-1-carboxamide] | 0.01 | 156 | 0.04 | 0.033 | –
2 | C[C@]1(c2cc(/C=C(\F)c3cnc(Cl)cn3)ccc2F)N=C(N)S[C@@]2(S(C)(=O)=O)C[C@H]21 [Example 230, (1R,5S,6S)-5-(5-((Z)-2-(5-chloropyrazin-2-yl)-2-fluorovinyl)-2-fluorophenyl)-5-methyl-1-(methylsulfonyl)-2-thia-4-azabicyclo[4.1.0]hept-3-en-3-amine] | 0.0057 | 121 | – | 0.011 | 0.231
3 | CN(C)C(=O)[C@]12C[C@H]1[C@@](C)(c1cc(/C(F)=C/c3ccc(C#N)cc3)ccc1F)N=C(N)S2 [Example 221, (1S,5S,6S)-3-amino-5-(5-((Z)-2-(4-cyanophenyl)-1-fluorovinyl)-2-fluorophenyl)-N,N,5-trimethyl-2-thia-4-azabicyclo[4.1.0]hept-3-ene-1-carboxamide] | 0.128 | 48.6 | 0.575 | 0.302 | –
4 | COc1ccc(/C(F)=C/c2ccc(F)c([C@@]3(C)N=C(N)S[C@@]4(C(=O)N5CCCC5)C[C@H]43)c2)nc1 [Example 104, ((1S,5S,6S)-3-amino-5-(2-fluoro-5-((Z)-2-fluoro-2-(5-methoxypyridin-2-yl)vinyl)phenyl)-5-methyl-2-thia-4-azabicyclo[4.1.0]hept-3-en-1-yl)(pyrrolidin-1-yl)methanone] | 0.0226 | 185 | – | 0.144 | 0.0221
5 | C[C@]1(c2cc(/C=C(\F)c3ccc(C#C[Si](C)(C)C)cn3)ccc2F)N=C(N)S[C@@]2(C(=O)N3CCOCC3)C[C@H]21 [Example 354, ((1S,5S,6S)-3-amino-5-(2-fluoro-5-((Z)-2-fluoro-2-(5-((trimethylsilyl)ethynyl)pyridin-2-yl)vinyl)phenyl)-5-methyl-2-thia-4-azabicyclo[4.1.0]hept-3-en-1-yl)(morpholino)methanone] | 0.013 | 26 | – | 0.412 | 0.058
6 | CN(C)C(=O)[C@]12C[C@H]1[C@@](C)(c1cc(/C=C(\F)c3ncc(C#N)s3)ccc1F)N=C(N)S2 [Example 219, (1S,5S,6S)-3-amino-5-(5-((Z)-2-(5-cyanothiazol-2-yl)-2-fluorovinyl)-2-fluorophenyl)-N,N,5-trimethyl-2-thia-4-azabicyclo[4.1.0]hept-3-ene-1-carboxamide] | 0.004 | 110 | – | 0.007 | 0.005
7 | C#CCOc1cnc(/C(F)=C/c2ccc(F)c([C@@]3(C)N=C(N)S[C@@]4(C(C)=O)C[C@H]43)c2)cn1 [Example 234, 1-((1S,5S,6S)-3-amino-5-(2-fluoro-5-((Z)-2-fluoro-2-(5-(prop-2-yn-1-yloxy)pyrazin-2-yl)vinyl)phenyl)-5-methyl-2-thia-4-azabicyclo[4.1.0]hept-3-en-1-yl)ethanone] | 0.0059 | 125 | 0.0111 | 0.581 | –
8 | CC1CCN1C(=O)[C@]12C[C@H]1[C@@](C)(c1cc(/C=C(\F)c3ccc(Cl)cn3)ccc1F)N=C(N)S2 (stereo partly drawn) [Example 116, ((1S,5S,6S)-3-amino-5-(5-((Z)-2-(5-chloropyridin-2-yl)-2-fluorovinyl)-2-fluorophenyl)-5-methyl-2-thia-4-azabicyclo[4.1.0]hept-3-en-1-yl)(2-methylazetidin-1-yl)methanone] | 0.00623 | 107 | – | 0.0119 | 0.00929
9 | C[C@]1(c2cc(/C=C(\F)c3ccc(C#N)cn3)ccc2F)N=C(N)S[C@@]2(C#N)C[C@H]21 [Example 245, (1S,5S,6S)-3-amino-5-(5-((Z)-2-(5-cyanopyridin-2-yl)-2-fluorovinyl)-2-fluorophenyl)-5-methyl-2-thia-4-azabicyclo[4.1.0]hept-3-ene-1-carbonitrile] | 0.005 | 400 | – | 0.057 | 0.0341
10 | C#CCOc1cnc(/C(F)=C/c2cnc(F)c([C@@]3(C)N=C(N)S[C@@]4(C(=O)OC)C[C@H]43)c2)cn1 [Example 294, (1S,5S,6S)-methyl 3-amino-5-(2-fluoro-5-((Z)-2-fluoro-2-(5-(prop-2-yn-1-yloxy)pyrazin-2-yl)vinyl)pyridin-3-yl)-5-methyl-2-thia-4-azabicyclo[4.1.0]hept-3-ene-1-carboxylate methanone] | 0.0089 | 400 | – | 2.76 | 0.0949
11 | C[C@]1(c2cc(/C=C(\F)c3ccc(C#N)cn3)ccc2F)N=C(N)S[C@@]2(C(=O)N3Cc4ccccc4C3)C[C@H]21 [Example 129, 6-((Z)-2-(3-((1S,5S,6S)-3-amino-1-(isoindoline-2-carbonyl)-5-methyl-2-thia-4-azabicyclo[4.1.0]hept-3-en-5-yl)-4-fluorophenyl)-1-fluorovinyl)nicotinonitrile bis(2,2,2-trifluoroacetate)] | 0.00117 | 133 | – | 0.0311 | 0.0165
12 | CC#C/C(F)=C/c1ccc(F)c([C@@]2(C)N=C(N)S[C@@]3(C(=O)N(C)C)C[C@H]32)c1 [Example 209, (1S,5S,6S)-3-amino-5-(2-fluoro-5-((Z)-2-fluoropent-1-en-3-yn-1-yl)phenyl)-N,N,5-trimethyl-2-thia-4-azabicyclo[4.1.0]hept-3-ene-1-carboxamide] | 0.094 | 56 | – | 0.01 | 0.324
13 | COC[C@H]1COCCN1C(=O)[C@]12C[C@H]1[C@@](C)(c1cc(/C=C(\F)c3ccc(C#N)cn3)ccc1F)N=C(N)S2 [Example 328, 6-((Z)-2-(3-((1S,5S,6S)-3-amino-1-((S)-3-(methoxymethyl)morpholine-4-carbonyl)-5-methyl-2-thia-4-azabicyclo[4.1.0]hept-3-en-5-yl)-4-fluorophenyl)-1-fluorovinyl)nicotinonitrile] | 0.0023 | 40.3 | – | 0.085 | 0.0019
14 | Cc1cnc([C@]23C[C@H]2[C@@](C)(c2cc(/C=C(\F)c4ccc(C#N)cn4)ccc2F)N=C(N)S3)o1 [Example 344, 6-((Z)-2-(3-((1S,5S,6S)-3-amino-5-methyl-1-(5-methyloxazol-2-yl)-2-thia-4-azabicyclo[4.1.0]hept-3-en-5-yl)-4-fluorophenyl)-1-fluorovinyl)nicotinonitrile] | 0.0033 | 227 | – | 0.18 | 0.0285
15 | CN(C)C(=O)[C@]12C[C@H]1[C@@](C)(c1cc(/C=C(\F)c3cnc(OCC(F)F)cn3)ccc1F)N=C(N)S2 [Example 213, (1S,5S,6S)-3-amino-5-(5-((Z)-2-(5-(2,2-difluoroethoxy)pyrazin-2-yl)-2-fluorovinyl)-2-fluorophenyl)-N,N,5-trimethyl-2-thia-4-azabicyclo[4.1.0]hept-3-ene-1-carboxamide] | 0.021 | 103 | – | 0.065 | 0.039
16 | CNC(=O)[C@]12C[C@H]1[C@@](C)(c1cc(/C=C(\F)c3ccc(C#CC4CC4)cn3)ccc1F)N=C(N)S2 [Example 358, (1S,5S,6S)-3-amino-5-(5-((Z)-2-(5-(cyclopropylethynyl)pyridin-2-yl)-2-fluorovinyl)-2-fluorophenyl)-N,5-dimethyl-2-thia-4-azabicyclo[4.1.0]hept-3-ene-1-carboxamide] | 0.018 | 39.8 | – | 0.415 | 0.256
17 | C[C@]1(c2cc(/C=C(\F)c3ccc(C#N)cn3)ccc2F)N=C(N)S[C@@]2(C(=O)N3CCOC4(COC4)C3)C[C@H]21 [Example 308, 6-((Z)-2-(3-((1S,5S,6S)-3-amino-5-methyl-1-(2,5-dioxa-8-azaspiro[3.5]nonane-8-carbonyl)-2-thia-4-azabicyclo[4.1.0]hept-3-en-5-yl)-4-fluorophenyl)-1-fluorovinyl)nicotinonitrile] | 0.0021 | 296 | – | 0.013 | 0.001
18 | CN(C)C(=O)[C@]12C[C@H]1[C@@](C)(c1cc(/C=C(\F)I)ccc1F)N=C(N)S2 [Example 206, (1S,5S,6S)-3-amino-5-(2-fluoro-5-((E)-2-fluoro-2-iodovinyl)phenyl)-N,N,5-trimethyl-2-thia-4-azabicyclo[4.1.0]hept-3-ene-1-carboxamide] | 0.01 | 12.2 | – | 0.008 | 0.093
19 | C#Cc1ccc(/C(F)=C/c2ccc(F)c([C@@]3(C)N=C(N)S[C@@]4(C(=O)N(C)C)C[C@H]43)c2)nc1 [Example 110, (1S,5S,6S)-3-amino-5-(5-((Z)-2-(5-ethynylpyridin-2-yl)-2-fluorovinyl)-2-fluorophenyl)-N,N,5-trimethyl-2-thia-4-azabicyclo[4.1.0]hept-3-ene-1-carboxamide] | 0.00324 | 403 | – | 0.0144 | 0.0127
20 | C[C@H]1CN(C(=O)[C@]23C[C@H]2[C@@](C)(c2cc(/C=C(\F)c4ccc(C#N)cn4)ccc2F)N=C(N)S3)C[C@H](C)O1 [Example 323, 6-((Z)-2-(3-((1S,5S,6S)-3-amino-1-((2S,6S)-2,6-dimethylmorpholine-4-carbonyl)-5-methyl-2-thia-4-azabicyclo[4.1.0]hept-3-en-5-yl)-4-fluorophenyl)-1-fluorovinyl)nicotinonitrile] | 0.0031 | 411 | – | 0.192 | 0.0026

— US10246429B2, “Vinyl fluoride cyclopropyl fused thiazin-2-amine compounds as beta-secretase inhibitors and methods of use” (AMGEN INC., priority 2015, dated 2019)
